Results: BindingDB's records for patent US11787796 (Takeda Pharmaceutical, 2023)

Target: Plasma kallikrein (Homo sapiens, UniProt P03952)
Test: Inhibitory Activity of Exemplary Compounds Against Plasma Kallikrein
Method: Example compounds were evaluated for inhibition of the human activated kallikrein enzyme in two formats of an assay employing a fluorogenic peptide substrate. In one assay format, the concentrations of reagents were as follows: 20 mM Tris pH 7.5, 1 mM EDTA, 150 mM sodium chloride, 0.1% PEG-400, 0.1% Triton X-100, […], 300 uM Pro-Phe-Arg-7-amido-4-methylcoumarin substrate. Prior to reaction initiation with substrate, enzyme and inhibitors were preincubated for 30 min at RT. After initiation with substrate, reactions were incubated for 10 min at RT and fluorescence emission at 460 nm from 380 nm excitation measured with a microplate reader. In another assay format, the concentrations of reagents were as follows: 20 mM Tris pH 7.5, 1 mM EDTA, 150 mM sodium chloride, 0.1% PEG-400, 0.1% Triton X-100, 5 pM activated kallikrein enzyme, 300 uM Pro-Phe-Arg-7-amido-4-methylcoumarin substrate. Prior to reaction initiation with substrate, enzyme and inhibitors were preincubated for 30 min at RT. After initiation with substrate, reactions were incubated for 18 h at RT and fluorescence emission at 460 nm from 380 nm excitation measured with a microplate reader.

Chain of Plasma kallikrein (P03952 20-390 limits assumed): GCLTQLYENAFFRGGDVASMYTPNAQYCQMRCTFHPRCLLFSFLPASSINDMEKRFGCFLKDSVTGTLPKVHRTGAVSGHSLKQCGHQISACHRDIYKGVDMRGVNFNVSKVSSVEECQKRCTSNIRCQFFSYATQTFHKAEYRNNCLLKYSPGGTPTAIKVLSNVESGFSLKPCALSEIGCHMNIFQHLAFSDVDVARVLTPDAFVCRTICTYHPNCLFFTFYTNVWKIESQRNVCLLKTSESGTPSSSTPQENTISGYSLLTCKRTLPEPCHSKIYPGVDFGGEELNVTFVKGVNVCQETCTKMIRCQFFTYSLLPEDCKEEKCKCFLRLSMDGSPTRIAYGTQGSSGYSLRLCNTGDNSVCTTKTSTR
Chain of Plasma kallikrein (P03952 391-638 limits assumed): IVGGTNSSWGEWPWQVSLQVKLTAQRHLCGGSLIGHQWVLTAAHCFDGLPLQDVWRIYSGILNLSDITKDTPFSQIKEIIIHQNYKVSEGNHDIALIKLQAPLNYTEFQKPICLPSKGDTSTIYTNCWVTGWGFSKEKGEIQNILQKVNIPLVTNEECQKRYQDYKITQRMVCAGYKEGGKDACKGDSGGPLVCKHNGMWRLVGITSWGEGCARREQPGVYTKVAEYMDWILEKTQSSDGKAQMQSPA

EC50: < 1 nM
SMILES: COc1ccc(-n2cnnn2)c(CNC(=O)c2nnn(Cc3cn4cc(C5CC5)ccc4n3)n2)c1F [US11787796, Compound I-28]
